In patent US6187770A, “N-substituted azaheterocyclic compounds” (Novo Nordisk A/S, priority 1998, dated 2001):

Test system: histamine induced blood glucose rise
Assay: Histamine induced hyperglycemia in mice
Assay type: in vivo
Conditions: 1.0 mg/kg ip, 30 min before histamine chloride (90 nmol icv); blood glucose at 0 and 40 min; male NMRI mice
Method: Conscious unfasted 25 g male NMRI mice are administered histamine chloride (90 nmol) icv according to the method of Nishibori et al. (J. Pharmacol. Exp. Therap. 241, […], 1987). Blood glucose is determined at time 0 and 40 min after the histamine injection. Test compounds are administered at 1.0 mg/kg ip 30 min before the histamine injection, and % inhibition refers to the capacity of the compounds to inhibit the histamine induced blood glucose rise.

In the case of `O=C(O)CCN1CCN2c3ccccc3Sc3ccccc3C2C1` (stereo not shown) [Example 4, 3-(1,3,4,14b-Tetrahydro-2H-dibenzo[b,f]pyrazino[1,2-d][1,4]thiazepin-2-yl)-propionic acid], the “% inhibition of histamine induced hyperglycemia” value is reported as 48%.
